# Assay results taken from paper PMC5218480 (PLoS ONE, 2017).
# Tested on: MV-4-11 cells
# Assay: Gene expression microarray analysis (Affymetrix PrimeView) and GSEA
# Assay type: cell-based, human
# Design: RFU PODN (11730768_x_at) / Fold change /veh PODN (11730768_x_at) / RFU LINC00158 (11744669_a_at) / Fold change /veh LINC00158 (11744669_a_at) / RFU DUSP10 (11751237_a_at) / Fold change /veh DUSP10 (11751237_a_at) / RFU ID3 (11757404_x_at) / Fold change /veh ID3 (11757404_x_at) / RFU PLEKHG5 (11737974_s_at) / Fold change /veh PLEKHG5 (11737974_s_at) / RFU LRRC4B (11730491_at) / Fold change /veh LRRC4B (11730491_at) / RFU GIMAP4 (11747438_a_at) / Fold change /veh GIMAP4 (11747438_a_at) / RFU KRT8 (11758183_x_at) / Fold change /veh KRT8 (11758183_x_at) / RFU CNN1 (11734310_a_at) / Fold change /veh CNN1 (11734310_a_at) / RFU VPS37D (11726825_at) / Fold change /veh VPS37D (11726825_at) / RFU C10orf10 (11716522_x_at) / Fold change /veh C10orf10 (11716522_x_at) / RFU KIR2DL2 /// KIR2DL4 /// KIR2DL5A /// KIR2DL5B /// KIR2DS1 /// KIR2DS2 /// KIR2DS3 /// KIR2DS4 /// KIR3DL3 /// KIR3DL3 /// KIR3DS1 (11738374_at) / Fold change /veh KIR2DL2 /// KIR2DL4 /// KIR2DL5A /// KIR2DL5B /// KIR2DS1 /// KIR2DS2 /// KIR2DS3 /// KIR2DS4 /// KIR3DL3 /// KIR3DL3 /// KIR3DS1 (11738374_at) / RFU C1QL1 (11718748_at) / Fold change /veh C1QL1 (11718748_at) / RFU TMPRSS4 (11747572_a_at) / Fold change /veh TMPRSS4 (11747572_a_at) / RFU HAMP (11756126_x_at) / Fold change /veh HAMP (11756126_x_at) / RFU RNFT2 (11725882_a_at) / Fold change /veh RNFT2 (11725882_a_at) / RFU NR4A2 (11747474_a_at) / Fold change /veh NR4A2 (11747474_a_at) / RFU ABCC12 (11746883_a_at) / Fold change /veh ABCC12 (11746883_a_at) / RFU TMEM136 (11760407_x_at) / Fold change /veh TMEM136 (11760407_x_at) / RFU CLDN22 /// WWC2 (11732394_at) / Fold change /veh CLDN22 /// WWC2 (11732394_at) / RFU HLA-DPB1 (11760878_x_at) / Fold change /veh HLA-DPB1 (11760878_x_at) / RFU SPINT1 (11716480_a_at) / Fold change /veh SPINT1 (11716480_a_at) / RFU GAP43 (11754022_s_at) / Fold change /veh GAP43 (11754022_s_at) / RFU A4GNT (11735810_at) / Fold change /veh A4GNT (11735810_at) / RFU PRB3 (11715151_x_at) / Fold change /veh PRB3 (11715151_x_at) / RFU TUBB4B (11761932_at) / Fold change /veh TUBB4B (11761932_at) / RFU CAPN14 (11732068_a_at) / Fold change /veh CAPN14 (11732068_a_at) / RFU TMCC2 (11721928_a_at) / Fold change /veh TMCC2 (11721928_a_at) / RFU IRGQ (11745062_a_at) / Fold change /veh IRGQ (11745062_a_at) / RFU FAM174B (11720279_a_at) / Fold change /veh FAM174B (11720279_a_at) / RFU TMPRSS4 (11748680_a_at) / Fold change /veh TMPRSS4 (11748680_a_at) / RFU FAM212B (11763350_a_at) / Fold change /veh FAM212B (11763350_a_at) / RFU PLEKHG5 (11743358_a_at) / Fold change /veh PLEKHG5 (11743358_a_at) / RFU ZSCAN30 (11745921_a_at) / Fold change /veh ZSCAN30 (11745921_a_at) / RFU CMKLR1 (11741424_a_at) / Fold change /veh CMKLR1 (11741424_a_at) / RFU LOC101060620 /// MAPK8IP1 (11723275_at) / Fold change /veh LOC101060620 /// MAPK8IP1 (11723275_at) / RFU SPTSSB (11747773_x_at) / Fold change /veh SPTSSB (11747773_x_at) / RFU PRSS12 (11739890_at) / Fold change /veh PRSS12 (11739890_at) / RFU BIN1 (11741810_x_at) / Fold change /veh BIN1 (11741810_x_at) / RFU WNT11 (11732464_a_at) / Fold change /veh WNT11 (11732464_a_at) / RFU C10orf10 (11716521_a_at) / Fold change /veh C10orf10 (11716521_a_at) / RFU C5orf56 (11738089_at) / Fold change /veh C5orf56 (11738089_at) / RFU CYB561 (11721691_x_at) / Fold change /veh CYB561 (11721691_x_at) / RFU ANKRD19P (11752326_a_at) / Fold change /veh ANKRD19P (11752326_a_at) / RFU OR2T12 /// OR2T33 /// OR2T8 (11738714_s_at) / Fold change /veh OR2T12 /// OR2T33 /// OR2T8 (11738714_s_at) / RFU VCAN (11748164_a_at) / Fold change /veh VCAN (11748164_a_at) / RFU JSRP1 (11732532_at) / Fold change /veh JSRP1 (11732532_at) / RFU KRTAP10-11 (11738290_x_at) / Fold change /veh KRTAP10-11 (11738290_x_at) / RFU MYO3A (11730013_a_at) / Fold change /veh MYO3A (11730013_a_at) / RFU EBF3 (11725865_a_at) / Fold change /veh EBF3 (11725865_a_at) / RFU CAMK2N1 (11719241_x_at) / Fold change /veh CAMK2N1 (11719241_x_at) / RFU C5orf56 (11738088_a_at) / Fold change /veh C5orf56 (11738088_a_at) / RFU OLFML3 (11715873_a_at) / Fold change /veh OLFML3 (11715873_a_at) / RFU LOC100653217 /// NTM (11731650_a_at) / Fold change /veh LOC100653217 /// NTM (11731650_a_at) / RFU MAPK11 (11762145_a_at) / Fold change /veh MAPK11 (11762145_a_at) / RFU FIZ1 (11724087_x_at) / Fold change /veh FIZ1 (11724087_x_at) / RFU OASL (11726364_x_at) / Fold change /veh OASL (11726364_x_at) / RFU SOX15 (11748057_x_at) / Fold change /veh SOX15 (11748057_x_at) / RFU CD79A (11719716_a_at) / Fold change /veh CD79A (11719716_a_at) / RFU HIST1H1D (11736915_at) / Fold change /veh HIST1H1D (11736915_at) / RFU CASKIN2 (11723855_a_at) / Fold change /veh CASKIN2 (11723855_a_at) / RFU LOC730098 (11760151_x_at) / Fold change /veh LOC730098 (11760151_x_at) / RFU OR4N2 (11742367_at) / Fold change /veh OR4N2 (11742367_at) / RFU PRRT2 (11749266_a_at) / Fold change /veh PRRT2 (11749266_a_at) / RFU SNX32 (11753110_a_at) / Fold change /veh SNX32 (11753110_a_at) / RFU CDHR5 (11726645_a_at) / Fold change /veh CDHR5 (11726645_a_at) / RFU RCAN1 (11760418_a_at) / Fold change /veh RCAN1 (11760418_a_at) / RFU FAM167A (11723789_a_at) / Fold change /veh FAM167A (11723789_a_at) / RFU FAM26E (11764081_at) / Fold change /veh FAM26E (11764081_at) / RFU ISYNA1 (11749810_s_at) / Fold change /veh ISYNA1 (11749810_s_at) / RFU ACY1 (11761880_at) / Fold change /veh ACY1 (11761880_at) / RFU 11764098_at / Fold change /veh 11764098_at / RFU SAMD14 (11745864_x_at) / Fold change /veh SAMD14 (11745864_x_at) / RFU NPB (11741838_a_at) / Fold change /veh NPB (11741838_a_at) / RFU TMPRSS6 (11731388_a_at) / Fold change /veh TMPRSS6 (11731388_a_at) / RFU KRTAP10-2 (11738614_at) / Fold change /veh KRTAP10-2 (11738614_at) / RFU ARHGAP8 /// PRR5-ARHGAP8 (11727945_x_at) / Fold change /veh ARHGAP8 /// PRR5-ARHGAP8 (11727945_x_at) / RFU KRTAP5-7 /// NADSYN1 (11734609_at) / Fold change /veh KRTAP5-7 /// NADSYN1 (11734609_at) / RFU RASL12 (11751679_a_at) / Fold change /veh RASL12 (11751679_a_at) / RFU CDKN2B (11736163_a_at) / Fold change /veh CDKN2B (11736163_a_at) / RFU PRF1 (11729649_at) / Fold change /veh PRF1 (11729649_at) / RFU, ZNF638 /// ZNF638-IT1 / Fold change vs veh, ZNF638 /// ZNF638-IT1 / RFU, PANK3 / Fold change vs veh, PANK3 / RFU, SH3YL1 / Fold change vs veh, SH3YL1 / RFU, ZEB2 / Fold change vs veh, ZEB2 / RFU, NRIP1 / Fold change vs veh, NRIP1 / RFU, PTTG1IP / Fold change vs veh, PTTG1IP / RFU, CAPN2 / Fold change vs veh, CAPN2 / RFU, MED14 / Fold change vs veh, MED14 / RFU, SNORA58 / Fold change vs veh, SNORA58 / RFU, C1orf63 / Fold change vs veh, C1orf63 / RFU, LRRFIP1 / Fold change vs veh, LRRFIP1 / RFU, NDUFAF7 / Fold change vs veh, NDUFAF7 / RFU, SLC12A2 / Fold change vs veh, SLC12A2 / RFU, IBTK / Fold change vs veh, IBTK / RFU, ESF1 / Fold change vs veh, ESF1 / Fold change vs veh, TMEM50B / RFU, TAOK1 / Fold change vs veh, TAOK1 / RFU, ACBD3 / Fold change vs veh, ACBD3 / RFU, TMA16 / Fold change vs veh, TMA16 / RFU, RWDD3 / Fold change vs veh, RWDD3 / RFU, BCAT1 / Fold change vs veh, BCAT1 / RFU, EDEM3 / Fold change vs veh, EDEM3 / RFU, TMEM33 / Fold change vs veh, TMEM33 / RFU, WDR75 / Fold change vs veh, WDR75 / RFU, AHCTF1 / Fold change vs veh, AHCTF1 / RFU, TFRC / Fold change vs veh, TFRC / RFU, ZDHHC17 / Fold change vs veh, ZDHHC17 / RFU, NOM1 / Fold change vs veh, NOM1 / RFU, ARL8B / Fold change vs veh, ARL8B / RFU, ZBTB11 / Fold change vs veh, ZBTB11 / RFU, TAMM41 / Fold change vs veh, TAMM41 / RFU, KIAA1704 /// LOC100996395 / Fold change vs veh, KIAA1704 /// LOC100996395 / RFU, ING1 / Fold change vs veh, ING1 / RFU, TRMT61B / Fold change vs veh, TRMT61B / RFU, FUBP3 / Fold change vs veh, FUBP3 / RFU, TP53 / Fold change vs veh, TP53 / RFU, TNKS2 / Fold change vs veh, TNKS2 / RFU, ZFP14 / Fold change vs veh, ZFP14 / RFU, ACTR2 / Fold change vs veh, ACTR2 / RFU, PPP3R1 / Fold change vs veh, PPP3R1 / RFU, PIK3R1 / Fold change vs veh, PIK3R1 / RFU, HNRNPA1 / Fold change vs veh, HNRNPA1 / RFU, RNF170 / Fold change vs veh, RNF170 / RFU, ZNF28 / Fold change vs veh, ZNF28 / RFU, RNGTT / Fold change vs veh, RNGTT / RFU, OGT / Fold change vs veh, OGT / RFU, BRD1 / Fold change vs veh, BRD1 / RFU, MARS / Fold change vs veh, MARS / RFU, ZNF655 / Fold change vs veh, ZNF655 / RFU, FAHD1 / Fold change vs veh, FAHD1 / RFU, BDP1 / Fold change vs veh, BDP1 / RFU, LRRCC1 / Fold change vs veh, LRRCC1 / RFU, ARID1A / Fold change vs veh, ARID1A / RFU, ZNF146 / Fold change vs veh, ZNF146 / RFU, ZNF330 / Fold change vs veh, ZNF330 / RFU, GPN3 / Fold change vs veh, GPN3 / RFU, C9orf123 / Fold change vs veh, C9orf123 / RFU, N4BP2L2 / Fold change vs veh, N4BP2L2 / RFU, ARFIP1 / Fold change vs veh, ARFIP1 / RFU, FAM179B / Fold change vs veh, FAM179B / RFU, BCL10 / Fold change vs veh, BCL10 / RFU, UHRF1BP1L / Fold change vs veh, UHRF1BP1L / RFU, BET1 / Fold change vs veh, BET1 / RFU, CNOT2 / Fold change vs veh, CNOT2 / RFU, ZNF268 / Fold change vs veh, ZNF268 / Fold change vs veh, ZNF507 / RFU, DGCR2 / Fold change vs veh, DGCR2 / RFU, WDSUB1 / Fold change vs veh, WDSUB1 / Fold change vs veh, HSP90B1 /// MIR3652 / RFU, ADSS / Fold change vs veh, ADSS / RFU, GK / Fold change vs veh, GK / RFU, ZNF148 / Fold change vs veh, ZNF148 / RFU, TAF9 / Fold change vs veh, TAF9 / RFU, SLC1A5 / Fold change vs veh, SLC1A5 / RFU, SLMO2 / Fold change vs veh, SLMO2 / RFU, ABCC4 / Fold change vs veh, ABCC4 / RFU, LOC101060439 /// RAP1B / Fold change vs veh, LOC101060439 /// RAP1B / RFU, RFX7 / Fold change vs veh, RFX7 / RFU, GTPBP10 / Fold change vs veh, GTPBP10 / RFU, CNEP1R1 / Fold change vs veh, CNEP1R1 / RFU, BIVM-ERCC5 /// ERCC5 / Fold change vs veh, BIVM-ERCC5 /// ERCC5 / RFU, ILF3 / Fold change vs veh, ILF3 / RFU 11762660_at / Fold change /veh 11762660_at / RFU VCAN (11757783_s_at) / Fold change /veh VCAN (11757783_s_at) / RFU DDX43 (11728927_at) / Fold change /veh DDX43 (11728927_at) / RFU KRT8 (11758188_x_at) / Fold change /veh KRT8 (11758188_x_at) / RFU NKD1 (11759106_at) / Fold change /veh NKD1 (11759106_at) / RFU SRD5A1 (11742802_a_at) / Fold change /veh SRD5A1 (11742802_a_at) / RFU TPSAB1 /// TPSB2 (11721975_s_at) / Fold change /veh TPSAB1 /// TPSB2 (11721975_s_at) / RFU GSTM3 (11746129_a_at) / Fold change /veh GSTM3 (11746129_a_at) / RFU IL23R (11737362_x_at) / Fold change /veh IL23R (11737362_x_at) / RFU TMEM51 (11727254_a_at) / Fold change /veh TMEM51 (11727254_a_at) / RFU PIWIL2 (11732686_x_at) / Fold change /veh PIWIL2 (11732686_x_at) / RFU ORM1 (11744905_x_at) / Fold change /veh ORM1 (11744905_x_at) / RFU CCDC152 (11743942_at) / Fold change /veh CCDC152 (11743942_at) / RFU ECM1 (11717891_a_at) / Fold change /veh ECM1 (11717891_a_at) / RFU IL23R (11748794_a_at) / Fold change /veh IL23R (11748794_a_at) / RFU TNFAIP8L3 (11732012_x_at) / Fold change /veh TNFAIP8L3 (11732012_x_at) / RFU MBOAT4 (11741988_at) / Fold change /veh MBOAT4 (11741988_at) / RFU 11764193_at / Fold change /veh 11764193_at / RFU TMEM53 (11763286_at) / Fold change /veh TMEM53 (11763286_at) / RFU MAGEB2 (11727129_at) / Fold change /veh MAGEB2 (11727129_at) / RFU TMEM200A (11744735_a_at) / Fold change /veh TMEM200A (11744735_a_at) / RFU CCDC152 (11751479_a_at) / Fold change /veh CCDC152 (11751479_a_at) / RFU FAM211A (11726209_a_at) / Fold change /veh FAM211A (11726209_a_at) / RFU RGS16 (11746705_a_at) / Fold change /veh RGS16 (11746705_a_at) / RFU VCAN (11755009_s_at) / Fold change /veh VCAN (11755009_s_at) / RFU RHOB (11743442_s_at) / Fold change /veh RHOB (11743442_s_at) / RFU RGS16 (11720943_a_at) / Fold change /veh RGS16 (11720943_a_at) / RFU RGS16 (11720944_at) / Fold change /veh RGS16 (11720944_at) / RFU, VPS4B / Fold change vs veh, VPS4B / RFU, CREB1 / Fold change vs veh, CREB1 / RFU, DNAJC13 / Fold change vs veh, DNAJC13 / RFU, GNAQ / Fold change vs veh, GNAQ / RFU, CDK5R1 / Fold change vs veh, CDK5R1 / RFU, ZRANB3 / Fold change vs veh, ZRANB3 / RFU, CUL4A / Fold change vs veh, CUL4A / RFU, CCNY / Fold change vs veh, CCNY / RFU, UFL1 / Fold change vs veh, UFL1 / RFU, COG3 / Fold change vs veh, COG3 / RFU, DIAPH2 / Fold change vs veh, DIAPH2 / RFU, SKA2 / Fold change vs veh, SKA2 / RFU, AFF3 / Fold change vs veh, AFF3 / RFU, LMF1 / Fold change vs veh, LMF1 / RFU, IPO11 / Fold change vs veh, IPO11 / RFU, DFFB / Fold change vs veh, DFFB / RFU, FOXP1 / Fold change vs veh, FOXP1 / RFU, CARD8 / Fold change vs veh, CARD8 / RFU, STRN3 / Fold change vs veh, STRN3 / RFU, ADK / Fold change vs veh, ADK / RFU, RASSF2 / Fold change vs veh, RASSF2 / RFU, WIPF1 / Fold change vs veh, WIPF1 / RFU, LARP1B / Fold change vs veh, LARP1B / RFU, RASA1 / Fold change vs veh, RASA1 / RFU, RB1 / Fold change vs veh, RB1 / RFU, PPFIA1 / Fold change vs veh, PPFIA1 / RFU, MAT2A / Fold change vs veh, MAT2A / RFU, CCT5 / Fold change vs veh, CCT5 / RFU, WDR92 / Fold change vs veh, WDR92 / RFU, CUX1 / Fold change vs veh, CUX1 / RFU, TTC7A / Fold change vs veh, TTC7A / RFU, TMEM135 / Fold change vs veh, TMEM135 / RFU, DEPTOR / Fold change vs veh, DEPTOR / RFU, CPM / Fold change vs veh, CPM / RFU, DNAJB6 / Fold change vs veh, DNAJB6 / RFU, CACNA2D3 / Fold change vs veh, CACNA2D3 / RFU, DTX4 / Fold change vs veh, DTX4 / RFU, TFCP2 / Fold change vs veh, TFCP2 / RFU, GMCL1 /// GMCL1P1 / Fold change vs veh, GMCL1 /// GMCL1P1 / RFU, AEBP2 / Fold change vs veh, AEBP2 / RFU, SNHG1 /// SNORD22 /// SNORD25 /// SNORD26 /// SNORD27 /// SNORD28 /// SNORD29 /// SNORD31 / Fold change vs veh, SNHG1 /// SNORD22 /// SNORD25 /// SNORD26 /// SNORD27 /// SNORD28 /// SNORD29 /// SNORD31 / Fold change (Aza/veh), C12orf56 (ProbeSet 11735607_a_at) / Fold change (ACY-1035/veh), C12orf56 (ProbeSet 11735607_a_at) / Fold change (Aza/veh), FGFR1OP (ProbeSet 11751329_s_at) / Fold change (ACY-1035/veh), FGFR1OP (ProbeSet 11751329_s_at) / Fold change (Aza/veh), VPS36 (ProbeSet 11739960_a_at) / Fold change (ACY-1035/veh), VPS36 (ProbeSet 11739960_a_at) / RFU SYPL1 (11715823_x_at) / Fold change /veh SYPL1 (11715823_x_at) / RFU IGFBP7 (11715501_s_at) / Fold change /veh IGFBP7 (11715501_s_at) / RFU REEP3 (11722064_at) / Fold change /veh REEP3 (11722064_at) / RFU IGLL1 (11728026_x_at) / Fold change /veh IGLL1 (11728026_x_at): dose or concentration left out as unconfirmed
# Conditions: ProbeSet 11717308_a_at; LIST B
smiles,measurement,value
Nc1ccc(-c2cccs2)cc1NC(=O)c1ccc2c(c1)cc(C1CC1)n2CCN1CCOCC1 [ACY-1035],"RFU, WDR75",291.65 RFU
